Tested on: perfused rat stomach
Test: antisecretory activity in the perfused rat stomach (inhibition of histamine- or pentagastrin-stimulated acid secretion)
Type: in vivo
Conditions: iv, amount required to inhibit the histamine- or pentagastrin-stimulated secretion by 50 %, two to four rats per determination, read-out: ID50 (μmoles/kg) Rat perfused stomach i.v.
Description: Compounds of this invention were tested for […]- tory activity in the perfused rat stomach. The method of Gosh and Schild, Brit. […] After the secretion plateau was reached, the test compound was administered i.v. and the amount of comound required to inhibit the stimulated secretion by 50 % was determined. Two to four rats were used for each determination. [drawing 17]

How did the ED50 turn out when `CN(C)C1=NS(=O)(=O)N=C(NCCSCc2csc(N=C(N)N)n2)N1C` [-N(CH3)2] was run?
Its ED50 is 0.095 µmol/kg.

For `CN1C(N)=NS(=O)(=O)N=C1NCCSCc1csc(N=C(N)N)n1` [-NH2, 3-N-[2-[(2-Guanidino-4-thiazolyl)methylthio]-ethyl]-amino-4-methyl-5-amino-1,2,4,6-thiatriazine-1,1-dioxide], which ED50 is on record?
Its ED50 is 0.15 µmol/kg.

For `CC(C)NC1=NS(=O)(=O)N=C(NCCSCc2csc(N=C(N)N)n2)N1C` [-NH-CH(CH3)2], which ED50 is on record?
The ED50 was 0.28 µmol/kg.

With `C#CCNC1=NS(=O)(=O)N=C(NCCSCc2csc(N=C(N)N)n2)N1C` [-NHCH2C≡CH] as the compound, how does the ED50 read?
The ED50 was 0.12 µmol/kg.

How did the ED50 turn out when `CN1C(NC#N)=NS(=O)(=O)N=C1NCCSCc1csc(N=C(N)N)n1` [-NHCN] was run?
The ED50 was 0.34 µmol/kg.

Which ED50 does the source give for `CN/C(=N/CCSCc1nc[nH]c1C)NC#N` [Cimetidine, reference compound] here?
The ED50 was 10.8 µmol/kg.
